In paper PMC9502271, “An Investigation of the Anti-Depressive Properties of Phenylpropanoids and Flavonoids in Hemerocallis citrina Baroni” (Molecules, 2022):
Read-outs that look alike come from different tables or passages of the source.

Experiments:
[1] = system: NO production induced by LPS in BV2 cells; assay: Inhibition of NO production in LPS-induced BV2 microglial cells (Griess reagent); type: cell-based; details: for IC50: compound test concentrations 3.125 to 100 μM, mean ± SD (n = 3), read-out: IC50 NO Inhibitory
Experimental: (§1) BV2 microglia cells were purchased from iCell Bioscience Inc. (Shanghai, China). The cells were grown at 37 °C in a humid environment with 5% CO2. In DMEM with 10% fetal bovine serum and 1% penicillin-streptomycin solution, they were maintained alive. The following assays were carried out while the cells were in the exponential growth phase (subcultured 2–3 times).
To determine how much NO is produced, the literature was consulted. Equal parts of the Griess reagent (1% sulfanilamide and 0.1% N-(1-naphthyl) ethylenediamine dihydrochloride in 2.5% phosphoric acid) were combined with the sample-treated cell culture medium for 5 min at room temperature and in the dark. It was determined that the absorbance was at 540 nm using a microplate reader. The trials were conducted simultaneously in triplicate.

BV2 microglial cells = assay: CCK8 cytotoxic activity in BV2 microglial cells; type: cell-based; details: compound test concentrations 3.125 to 100 μM, read-out: IC50 Cell Viability
Experimental: as §1
The cytotoxic activity was assessed using the CCK8 test. In a 96-well plate, BV2 microglial cells (5 × 10^4 cells/well) were placed in each well and incubated for 12 h. After one hour with each substance, LPS (1 μg/mL) was applied to the BV2 microglia cells for an additional 24 h. The CCK8 solution was then incubated with BV2 cells for 1 h at 37 °C. The absorbance at 450 nm was measured using a plate reader (Molecular Devices, San Jose, CA, USA). The cells that had not been treated were assumed to have a 100% optical density.

[2] = Mus musculus, BV-2, LPS-induced BV2 cells
[3] = Mus musculus, BV-2, CCK8, LPS 1 μg/mL 24 h

Row | IC50 [1, 2] [µM] | IC50 ([1]; LPS-induced BV2 cells) [µM] | Compound | IC50 (BV2 microglial cells; [3]) [µM] | inhibitory effects on NO production in comparison with the positive drug indomethacin ([1]; LPS-induced BV2 cells) | IC50 (BV2 microglial cells; CCK8, LPS 1 μg/mL 24 h) [µM]
1 | > 100 |  | O=C(O)/C=C/c1ccc(O)cc1 [Compound 1, (E)-p-coumaric acid] | > 100 |  | 
2 | > 100 |  | O=C(O)/C=C\c1ccc(O)cc1 [Compound 2, (Z)-p-coumaric acid] | > 100 |  | 
3 | < 100 | 78.5 ± 8.23 | O=C(/C=C/c1ccc(O)cc1)O[C@H]1C[C@](O)(C(=O)O)C[C@H](O)[C@H]1O [Compound 3, 3-O-(E)-p-coumaroylquinic acid] | > 100 |  | 
4 | < 100 | 70.4 ± 5.86 | O=C(/C=C\c1ccc(O)cc1)O[C@H]1C[C@](O)(C(=O)O)C[C@H](O)[C@H]1O [Compound 4, 3-O-(Z)-p-coumaroylquinic acid] | > 100 |  | 
5 | < 100 | 95.8 ± 7.18 | COC(=O)[C@@]1(O)C[C@H](OC(=O)/C=C/c2ccc(O)cc2)[C@H](O)[C@@H](O)C1 [Compound 5, 3-O-(E)-p-coumaroylquinic acid methyl ester] | > 100 |  | 
6 | > 100 |  | COC(=O)[C@@]1(O)C[C@H](OC(=O)/C=C\c2ccc(O)cc2)[C@H](O)[C@@H](O)C1 [Compound 6, 3-O-(Z)-p-coumaroylquinic acid methyl ester] | > 100 |  | 
7 |  | 94.6 ± 5.62 | O=C(C=Cc1ccc(O)cc1)OC1CC2(O)CC(OC2=O)C1O (stereo not drawn) [Compound 7, 3-O-(E)-p-coumaroylquinide] | > 100 |  | 
8 |  |  | O=C(C=Cc1ccc(O)cc1)OC1CC2(O)CC(OC2=O)C1O (stereo not drawn) [Compound 8, 3-O-(Z)-p-coumaroylquinide] |  | stronger inhibitory effects | > 100
9 | > 100 |  | O=C(/C=C/c1ccc(O)cc1)O[C@H]1[C@@H](O)C[C@](O)(C(=O)O)C[C@@H]1O [Compound 9, 4-O-(E)-p-coumaroylquinic acid] | > 100 |  | 
10 | > 100 |  | O=C(/C=C\c1ccc(O)cc1)O[C@H]1[C@@H](O)C[C@](O)(C(=O)O)C[C@@H]1O [Compound 10, 4-O-(Z)-p-coumaroylquinic acid] | > 100 |  | 
11 | > 100 |  | O=C(/C=C/c1ccc(O)cc1)O[C@H]1C[C@@](O)(C(=O)O)C[C@H](O)[C@@H]1O [Compound 11, 5-O-(E)-p-coumaroylquinic acid] | > 100 |  | 
12 | > 100 |  | O=C(/C=C/c1ccc(O)c(O)c1)O[C@H]1C[C@@](O)(C(=O)O)C[C@H](O)[C@@H]1O [Compound 12, neochlorogenic acid] | > 100 |  | 
13 | < 100 | 74.4 ± 6.53 | O=C(/C=C/c1ccc(O)c(O)c1)O[C@H]1[C@@H](O)C[C@](O)(C(=O)O)C[C@@H]1O [Compound 13, crypto-chlorogenic acid] | > 100 |  | 
14 | > 100 |  | O=C(/C=C/c1ccc(O)c(O)c1)O[C@@H]1C[C@](O)(C(=O)O)C[C@@H](O)[C@H]1O [Compound 14, chlorogenic acid] | > 100 |  | 
15 | > 100 |  | COc1cc(/C=C/C(=O)O[C@@H]2C[C@@](O)(C(=O)O)C[C@@H](O)[C@@H]2O)ccc1O [Compound 15, 3-O-(E)-feruloylquinic acid] | > 100 |  | 
16 |  |  | O=c1c(O)c(-c2ccc(O)c(O)c2)oc2cc(O)cc(O)c12 [Compound 16, quercetin] | > 100 | stronger inhibitory effects | 
17 | > 100 |  | O=c1c(O[C@@H]2O[C@H](CO)[C@H](O)[C@H](O)[C@H]2O)c(-c2ccc(O)c(O)c2)oc2cc(O)cc(O)c12 [Compound 18, quercetin-3-O-β-D-galactpyranoside] | > 100 |  | 
18 | > 100 |  | O=c1c(O[C@@H]2O[C@H](CO)[C@@H](O)[C@H](O)[C@H]2O)c(-c2ccc(O)c(O)c2)oc2cc(O)cc(O)c12 [Compound 19, quercetin-3-O-β-D-glucopyranoside] | > 100 |  | 
19 | > 100 |  | C[C@@H]1O[C@@H](OC[C@H]2O[C@@H](Oc3c(-c4ccc(O)c(O)c4)oc4cc(O)cc(O)c4c3=O)[C@H](O)[C@@H](O)[C@@H]2O)[C@H](O)[C@H](O)[C@H]1O [Compound 20, quercetin-3-O-rutinoside] | > 100 |  | 
